What was measured:
[1] = system: HCH mouse model (Fgfr3^N534K/+), mandible bone repair; test: Non-stabilized mandibular fracture repair in HCH mice treated with BMN111 (microCT, repair grade); type: in vivo
Description: Mandibular bone repair was studied in the HCH mouse model (Fgfr3^N534K/+). The experiments were performed in adult animals at 6 weeks of age, and mice were euthanized at 4 key points: during bone repair (10, 14, 21 days post fracture), and at the end of the normal bone healing process i.e. at 28 days post fracture.
Vertical mandibular fractures were performed in the ascending ramus region in Fgfr3^N534K/+ and Fgfr3^+/+ mice. This is a non-stabilized mandibular fracture protocol allowing to analyze the endochondral bone repair process.
Four batches (n=100) of Fgfr3^N534K/+ and Fgfr3^+/+ mandible fractures corresponding to different key stages of repair were studied (day 10, day 14, day 21, day 28). Using collagen type II (proliferative cartilage), type X (hypertrophic cartilage) and type I (bone) immunolabelling, we observed that the endochondral process is disturbed, we noted a delayed cartilage resorption, a reduction in the size of hypertrophic chondrocytes area and a defect in bone formation within the repair callus in Fgfr3^N534K/+ compared to Fgfr3^+/+. […] We observed the presence of pseudarthrosis (fibrosis in the callus) in Fgfr3^N534K/+ mice whereas we observed 100% of bone in Fgfr3^+/+ callus. Considering the quality of the newly formed bone at day 28, we defined four grades of repair and classified the mice according to their repair grade (from 1 to 4). The defective repair is significant in Fgfr3^N534K/+ compared to Fgfr3^+/+ (FIG. 1C).
In order to analyze the bone microarchitecture, we performed microCT scans. We observed an alteration in the microarchitecture of callus formation from day10 to day 28 Fgfr3^N534K/+ compared to Fgfr3^+/+.
HCH mice (Fgfr3^N534K/+) were treated with BMN111 (subcutaneous injection at 0.8 mg/kg, 3 times per week) from day 0 (facture of the mandible) to day 14 or day 28. The bone repair analyses were evaluated by microCT scans at day 14 and day 28 post fracture. […] BV/TV is increased at day 14 (+29%; p<0.005) in treated HCH mice (n=8) compared to untreated HCH mice (n=9). BV/TV is increased at day 28 post fracture and (+24% p<0.005) in the HCH mice (n=9) compared to the untreated HCH mice (n=14) (FIGS. 1A and 1B).

[2] = system: mouse model (Fgfr3^Y367C/+); settings: human ACH cells and Fgfr3^Y367C/+ mouse model; Lorget et al 2012; cited from earlier work
[3] = day 28 grade repair, treated HCH mice
[4] = microCT, day 28 post fracture, treated (n=9) vs untreated (n=14) HCH mice, BMN111 s.c. 0.8 mg/kg 3 times per week, p<0.005

In the case of “Vosoritide (PGQEHPNARKYKGANKKGLSKGCFGLKLDRIGSMSGLGC; chains of the INN, looked up) [BMN111, CNP analog, NPR2 agonist; formula C176H290N56O51S3, CAS Number 1480724-61-5]”, the “Complete bone healing (grade 1), mice observed” value [1, 3] is reported as 7/9, the “Restoration of bone continuity, but presence of mild bone defects (grade 2), mice observed” value [1, 3] is reported as 2/9 and the BV/TV increase ([1]; microCT, day 14 post fracture, treated (n=8) vs untreated (n=9) HCH mice, BMN111 s.c. 0.8 mg/kg 3 times per week, p<0.005) is reported as “+29%”. The callus volume ([1]; microCT, day 14 post fracture, treated vs untreated HCH mice, BMN111 s.c. 0.8 mg/kg 3 times per week) was “unchanged”, the BV/TV increase [1, 4] was “+24%” and the “decrease of the volume of the callus” value [1, 4] was −30.9%. For the same substance, the “pseudarthrosis in the callus” value ([1]; treated HCH mice, mandible fracture callus) was “without pseudarthrosis” and the “effect on long bone growth and the skull” value [2] was “beneficial effect”.

Reference: patent publication US20260166127A1, “USE OF ANALOG OF C-TYPE NATRIURETIC PEPTIDE FOR THE TREATMENT OF FGFR-RELATED BONE REPAIR AND BONE FORMATION IMPAIRMENT” (INSTITUT NATIONAL DE LA SANTÉ ET DE LA RECHERCHE MÉDICALE, priority 2021, published 2026)
